# Reference: ChEMBL document CHEMBL5241111, “Non-steroidal anti-inflammatory drugs: recent advances in the use of synthetic COX-2 inhibitors” (RSC Med Chem, 2022)
# pIC50: −log10 of the molar value.
# How the values were obtained:
# [1] = target: T1, Prostaglandin G/H synthase 2 (Homo sapiens, UniProt P35354); test: Inhibition of human recombinant COX-2 using arachidonic acid as substrate preincubated for 5 mins followed by substrate addition and measured after 10 mins by microplate reader analysis
# T1 sequence (P35354 whole entry): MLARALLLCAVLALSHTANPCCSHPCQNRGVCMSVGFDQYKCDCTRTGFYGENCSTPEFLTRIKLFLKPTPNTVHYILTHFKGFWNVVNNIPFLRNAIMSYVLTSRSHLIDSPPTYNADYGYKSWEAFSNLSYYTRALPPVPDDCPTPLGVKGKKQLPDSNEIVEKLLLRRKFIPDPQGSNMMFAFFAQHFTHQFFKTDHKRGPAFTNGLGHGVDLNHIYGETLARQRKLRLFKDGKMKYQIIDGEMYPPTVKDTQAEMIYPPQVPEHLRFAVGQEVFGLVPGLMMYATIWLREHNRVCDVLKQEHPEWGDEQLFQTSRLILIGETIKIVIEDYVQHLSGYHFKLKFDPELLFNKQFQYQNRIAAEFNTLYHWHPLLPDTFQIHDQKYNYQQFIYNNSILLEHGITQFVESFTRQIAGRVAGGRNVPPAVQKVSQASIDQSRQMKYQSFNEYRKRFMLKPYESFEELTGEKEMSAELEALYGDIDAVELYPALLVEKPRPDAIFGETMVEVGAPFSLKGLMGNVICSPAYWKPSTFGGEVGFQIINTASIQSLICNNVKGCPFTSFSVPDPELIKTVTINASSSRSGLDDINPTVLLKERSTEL
# [2] = target: COX-1/COX-2 (Homo sapiens) (UniProt P35354+P23219); test: Selectivity index, ratio of IC50 for inhibition of COX-1 (unknown origin) to IC50 for inhibition of COX-2 (unknown origin); assay type: protein assay
# [3] = target: T1, Prostaglandin G/H synthase 2; test: Inhibition of human COX-2 using arachidonic acid as substrate incubated for 30 secs by ELISA
# [4] = target: T1, Prostaglandin G/H synthase 2; test: Inhibition of human COX-2 using arachidonic acid as substrate preincubated for 10 mins followed by substrate addition and measured after 30 secs by ELISA
# [5] = target: T2, Polyunsaturated fatty acid 5-lipoxygenase (Homo sapiens, UniProt P09917); test: Inhibition of 5-LOX (unknown origin)
# T2 sequence (P09917 whole entry): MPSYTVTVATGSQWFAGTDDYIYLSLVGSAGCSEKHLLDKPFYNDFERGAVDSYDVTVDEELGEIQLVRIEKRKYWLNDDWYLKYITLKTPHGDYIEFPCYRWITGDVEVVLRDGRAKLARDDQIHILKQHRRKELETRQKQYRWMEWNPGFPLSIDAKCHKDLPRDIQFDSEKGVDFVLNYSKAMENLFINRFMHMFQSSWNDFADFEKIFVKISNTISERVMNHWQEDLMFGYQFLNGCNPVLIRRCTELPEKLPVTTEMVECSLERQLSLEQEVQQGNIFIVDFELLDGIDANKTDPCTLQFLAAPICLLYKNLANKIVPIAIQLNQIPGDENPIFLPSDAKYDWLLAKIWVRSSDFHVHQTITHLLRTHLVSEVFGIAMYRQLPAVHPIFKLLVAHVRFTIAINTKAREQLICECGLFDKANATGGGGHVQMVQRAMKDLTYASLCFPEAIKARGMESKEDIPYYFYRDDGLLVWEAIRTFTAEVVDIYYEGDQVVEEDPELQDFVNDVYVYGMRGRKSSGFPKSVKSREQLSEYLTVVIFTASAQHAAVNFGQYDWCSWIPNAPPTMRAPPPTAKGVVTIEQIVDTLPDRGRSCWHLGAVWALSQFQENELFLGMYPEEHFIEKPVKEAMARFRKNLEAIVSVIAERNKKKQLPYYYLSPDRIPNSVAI
# Dihydrofolate reductase = target: T3, Dihydrofolate reductase (Homo sapiens, UniProt P00374); test: Inhibition of DHFR (unknown origin)
# T3 sequence (P00374 whole entry): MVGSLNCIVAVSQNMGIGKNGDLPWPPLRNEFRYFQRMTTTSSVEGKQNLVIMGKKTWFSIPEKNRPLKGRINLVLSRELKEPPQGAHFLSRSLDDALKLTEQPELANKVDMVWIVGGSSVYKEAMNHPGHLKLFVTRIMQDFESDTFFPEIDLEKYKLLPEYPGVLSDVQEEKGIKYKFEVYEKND
# [6] = Inhibition of soybean 5-LOX using linoleic acid as substrate preincubated for 5 mins followed by substrate addition and measured after 3 mins; design: species or system Glycine max
# Alpha-glucosidase = Alpha-glucosidase (Saccharomyces cerevisiae S288c, UniProt P53341+P38158+P07265); test: Inhibition of Saccharomyces cerevisiae alpha-glucosidase using PNPG as substrate preincubated for 10 mins followed by substrate addition by spectrophotometric method; assay type: protein assay
# [7] = target: T1, Prostaglandin G/H synthase 2; test: Inhibition of human COX-2 using arachidonic acid as substrate preincubated for 5 mins followed by substrate addition and measured after 2 mins by colorimetric assay
# [8] = target: T1, Prostaglandin G/H synthase 2; test: Inhibition of COX-2 (unknown origin)
# [9] = target: cGMP-specific 3',5'-cyclic phosphodiesterase (Homo sapiens) (UniProt O76074); test: Inhibition of human PDE5 using cGMP as substrate at 10 uM preincubated for 5 mins followed by substrate addition and measured after 30 mins by HPLC analysis relative to control; details: time 35.0 min
# Rattus norvegicus = test: Antiinflammatory activity against rat model of carrageenan induced paw edema assessed as inhibition of edema measured after 1 to 6 hrs relative to control; assay type: functional; details: time 1-6 hrs
smiles,measurement,setting,value
CC1=NN(c2ccc(S(N)(=O)=O)cc2)C(=O)/C1=C\c1cccc(OCc2ccccc2)c1,pIC50,[1],6.82
NS(=O)(=O)c1ccc(-c2nn(-c3ccc([N+](=O)[O-])cc3)cc2C=O)cc1,Ratio IC50,[2],0.008
same,pIC50,[3],7.77
O=c1[nH]n2c(=O)c3ccccc3nc2/c1=C/c1ccc(F)cc1,pIC50,[4],7.33
same,pIC50,[5],6.22
CC1=NN(c2ccc(S(N)(=O)=O)cc2)C(=O)/C1=C\c1c[nH]c2ccccc12,pIC50,[1],6.82
COc1ccccc1/C=c1\c(=O)[nH]n2c(=O)c3ccccc3nc12,pIC50,[4],7.33
same,pIC50,[5],6.22
NS(=O)(=O)c1ccc(N2C(=O)/C(=C/c3ccc(OC(=O)c4ccccc4)cc3)N=C2c2ccccc2)cc1,pIC50,Dihydrofolate reductase,6.55
COc1ccc2cc([C@H](C)C(=O)N[C@@H](CCCCN)C(=O)N/C(=C\c3ccccc3)C(=O)O)ccc2c1,pIC50,[6],4.31
COc1cc(/C=C2\C(=O)N(c3ccc(S(N)(=O)=O)cc3)N=C2C)ccc1OCC#N,pIC50,[1],6.82
CC(=O)Oc1cc2oc(-c3ccccc3)cc2cc1-c1c[se]nn1,IC50,Alpha-glucosidase,1.03 µM
COC(=O)/C(=C/c1ccccc1)NC(=O)[C@H](CC(=O)O)NC(=O)[C@@H](C)c1ccc2cc(OC)ccc2c1,pIC50,[6],4.31
CC1=c2c(OCc3nnc(SCC(=O)N4CCN(c5ncccn5)CC4)o3)nn(C)c(=O)c2=C(C)C1c1ccccc1 (stereo not drawn),pIC50,[7],5.17
CC(=O)c1nnn(-c2ccc(S(N)(=O)=O)cc2)c1C,Ratio IC50,[2],1.95
same,pIC50,[8],5.58
C/C(=C/C(=O)Nc1nccs1)Nc1ccc(Cl)cc1,inhibition,[9],100%
COc1ccc2cc([C@H](C)C(=O)O)ccc2c1 [NAPROXEN],pIC50,[6],4.66
COC(=O)/C(=C/c1ccccc1)NC(=O)[C@H](Cc1ccc(O)cc1)NC(=O)[C@@H](C)c1ccc2cc(OC)ccc2c1,pIC50,[6],4.31
COc1ccc(-c2cc3cc(-c4c[se]nn4)c(OC(C)=O)cc3o2)cc1,IC50,Alpha-glucosidase,1.03 µM
COc1ccc2cc([C@H](C)C(=O)N[C@@H](Cc3ccc(O)cc3)C(=O)N/C(=C\c3ccccc3)C(=O)O)ccc2c1,pIC50,[6],4.31
CS(=O)(=O)c1ccc(-c2nn(-c3ccc(S(N)(=O)=O)cc3)cc2C=O)cc1,Ratio IC50,[2],0.008
same,pIC50,[3],7.77
Cc1c(C(=O)NN)nnn1-c1ccc(S(N)(=O)=O)cc1,Ratio IC50,[2],1.95
same,pIC50,[8],5.53
CS(=O)(=O)c1ccc(C(=O)OCCn2cc(-c3ccc(C(F)(F)F)cc3)nn2)cc1,Ratio IC50,[2],0.008
same,pIC50,[3],8.70
CCC(=O)c1nnn(-c2ccc(S(N)(=O)=O)cc2)c1C,Ratio IC50,[2],1.95
same,pIC50,[8],5.58
CS(=O)(=O)c1ccc(-c2cc(-c3ccc(F)cc3)n(-c3ccc(S(N)(=O)=O)cc3)n2)cc1,inhibition (INH),Rattus norvegicus,42.1%
COc1ccc(/C=c2\c(=O)[nH]n3c(=O)c4ccccc4nc23)cc1,pIC50,[4],7.33
same,pIC50,[5],6.22
COc1ccc2cc([C@H](C)C(=O)N[C@@H](C)C(=O)N/C(=C\c3ccccc3)C(=O)O)ccc2c1,pIC50,[6],4.31
NS(=O)(=O)c1ccc(-n2cc(-c3ccc(C(F)(F)F)cc3)nn2)cc1,Ratio IC50,[2],0.008
same,pIC50,[3],5.48
O=c1[nH]n2c(=O)c3ccccc3nc2/c1=C/c1ccccc1F,pIC50,[4],7.33
same,pIC50,[5],6.22
Nc1ccc(S(=O)(=O)Nc2ncccn2)cc1 [SULFADIAZINE],pIC50,Dihydrofolate reductase,6.89
COc1ccc(/C=c2\c(=O)[nH]n3c(=O)c4ccccc4nc23)cc1OC,pIC50,[4],7.33
same,pIC50,[5],6.22
Cc1c(C2=NNC(c3ccccc3)C2)nnn1-c1ccc(S(N)(=O)=O)cc1 (stereo not drawn),Ratio IC50,[2],1.95
same,pIC50,[8],5.58
C/C=C(\NC(=O)[C@H](Cc1c[nH]c2ccccc12)NC(=O)[C@@H](C)c1ccc2cc(OC)ccc2c1)C(=O)OC,pIC50,[6],4.31
O=c1[nH]n2c(=O)c3ccccc3nc2/c1=C/c1ccc(Br)cc1,pIC50,[4],7.33
same,pIC50,[5],6.22
COc1ccc(-c2cc(-c3ccc(F)cc3)n(-c3ccc(S(N)(=O)=O)cc3)n2)cc1OC,inhibition (INH),Rattus norvegicus,42.1%
O=c1[nH]n2c(=O)c3ccccc3nc2/c1=C/c1ccc(Cl)cc1,pIC50,[4],7.33
same,pIC50,[5],6.22
CCOc1cc(/C=C2\C(=O)N(c3ccc(S(N)(=O)=O)cc3)N=C2C)ccc1O,pIC50,[1],6.82
CC(=O)Oc1cc2oc(-c3cccc(Cl)c3)cc2cc1-c1c[se]nn1,IC50,Alpha-glucosidase,1.03 µM
CC(=O)N1N=C(c2nnn(-c3ccc(S(N)(=O)=O)cc3)c2C)CC1c1ccccc1 (stereo not drawn),Ratio IC50,[2],1.95
same,pIC50,[8],5.58
CC(=O)Oc1cc2oc(-c3ccc(C)cc3)cc2cc1-c1c[se]nn1,IC50,Alpha-glucosidase,1.03 µM
NS(=O)(=O)c1ccc(C(=O)OCCn2cc(-c3ccc(C(F)(F)F)cc3)nn2)cc1,Ratio IC50,[2],0.008
same,pIC50,[3],6.88
CC(=O)Oc1cc2oc(-c3cccc(F)c3)cc2cc1-c1c[se]nn1,IC50,Alpha-glucosidase,1.03 µM
CC1=NN(c2ccc(S(N)(=O)=O)cc2)C(=O)/C1=C\c1sccc1C,pIC50,[1],6.82
CS(=O)(=O)c1ccc(-n2cc(-c3ccc(C(F)(F)F)cc3)nn2)cc1,Ratio IC50,[2],0.008
same,pIC50,[3],6.65
CC1=c2c(OCc3nnc(SCC(=O)N4CCN(c5ccccc5)CC4)o3)nn(C)c(=O)c2=C(C)C1c1ccccc1 (stereo not drawn),pIC50,[7],5.17
CC1=NN(c2ccc(S(N)(=O)=O)cc2)C(=O)/C1=C\c1ccc(F)cc1C,pIC50,[1],6.82
O=Cc1cn(-c2ccc(Br)cc2)nc1-c1ccc(Br)cc1,Ratio IC50,[2],0.008
same,pIC50,[3],7.77
COc1ccc2cc([C@H](C)C(=O)N[C@@H](Cc3c[nH]c4ccccc34)C(=O)N/C(=C\c3ccccc3)C(=O)O)ccc2c1,pIC50,[6],4.31
COc1cc(/C=C2\N=C(c3ccccc3)N(c3ccc(S(N)(=O)=O)cc3)C2=O)ccc1OC(=O)c1ccccc1,pIC50,Dihydrofolate reductase,6.55
O=c1[nH]n2c(=O)c3ccccc3nc2/c1=C/c1ccccc1,pIC50,[4],7.33
same,pIC50,[5],6.22
Cc1c(C(=O)NNC(=S)Nc2ccccc2)nnn1-c1ccc(S(N)(=O)=O)cc1,Ratio IC50,[2],1.95
same,pIC50,[8],5.58
CCCCCC1C(C)=c2c(OCc3nnc(SCC(=O)N4CCN(c5ccccc5)CC4)o3)nn(C)c(=O)c2=C1C (stereo not drawn),pIC50,[7],5.17
COc1ccc(N/C(C)=C\C(=O)Nc2nccs2)cc1,inhibition,[9],100%
O=c1[nH]n2c(=O)c3ccccc3nc2/c1=C/c1cccc(F)c1,pIC50,[4],7.33
same,pIC50,[5],6.22
CCCCCC1C(C)=c2c(OCc3nnc(SCC(=O)N4CCN(c5ncccn5)CC4)o3)nn(C)c(=O)c2=C1C (stereo not drawn),pIC50,[7],5.17
COc1cc(/C=C2\N=C(c3ccccc3)N(c3ccc(C(=O)O)cc3)C2=O)ccc1OC(=O)c1ccccc1,pIC50,Dihydrofolate reductase,6.55
CC(=O)Oc1cc2oc(-c3ccc(F)cc3)cc2cc1-c1c[se]nn1,IC50,Alpha-glucosidase,1.03 µM
COc1cc(/C=c2\c(=O)[nH]n3c(=O)c4ccccc4nc23)cc(OC)c1OC,pIC50,[5],6.22
C/C(=N\NC(=O)c1nnn(-c2ccc(S(N)(=O)=O)cc2)c1C)c1nnn(-c2ccc(S(N)(=O)=O)cc2)c1C,Ratio IC50,[2],1.95
same,pIC50,[8],5.58
C/C(=C/C(=O)Nc1nccs1)Nc1ccccc1,inhibition,[9],100%
COc1ccc2cc([C@H](C)C(=O)N[C@@H](CCSC)C(=O)N/C(=C\c3ccccc3)C(=O)O)ccc2c1,pIC50,[6],4.31
C/C(=N\NC(=O)c1nnn(-c2ccc(S(N)(=O)=O)cc2)c1C)c1cc2ccccc2o1,Ratio IC50,[2],1.95
same,pIC50,[8],5.58
